Measured values reported in patent publication US4536335A, “Carbapenem antibiotics” (Bristol-Myers Company, priority 1983, dated 1985).
≈ marks a conversion by molar mass, not a printed value. Read-outs that look alike come from different tables or passages of the source.

What was measured:
[1] = Blood levels in mice after intramuscular administration; assay type: in vivo; conditions: mouse, blood, im, 20 mg/kg, intramuscular dose of 20 mg/kg
Source text: Compounds were solubilized in 0.1 M phosphate buffer pH 7. Values are fro
a single test; 4 mice used per compound.
*t1/2 refers to halflife in minutes
**AUC refers to the area under the blood concentrationtime curve
(§1) Also shown is the urinary recovery in the mice.
Compounds were solubilized in 0.1 M phosphate buffer, pH 7.
Values based on a single test; 4 mice per compound.
*T1/2 refers to halflife in minutes

E. coli A15119 = test: In vitro MIC, tube dilution; assay type: cell-based; conditions: Escherichia coli, A15119, tube dilution, Nutrient Broth, overnight incubation at 37° C.; additional data table
S. pyogenes A-9604 = test: In vitro MIC, tube dilution; assay type: cell-based; conditions: Streptococcus pyogenes, A9604, tube dilution, Nutrient Broth, overnight incubation at 37° C.; additional data table
K. pneumoniae A-9664 = test: In vitro MIC, tube dilution; assay type: cell-based; conditions: Klebsiella pneumoniae, A9664, tube dilution, Nutrient Broth, overnight incubation at 37° C.; additional data table
P. rettgeri A22424 = test: In vitro MIC, tube dilution; assay type: cell-based; conditions: Providencia rettgeri, A22424, tube dilution, Nutrient Broth, overnight incubation at 37° C.; additional data table
P. morganii A15153 = test: In vitro MIC, tube dilution; assay type: cell-based; conditions: Morganella morganii, A15153, tube dilution, Nutrient Broth, overnight incubation at 37° C.; additional data table; read-out: MIC M. morganii A15153
E. cloacae A-9659 = test: In vitro MIC, tube dilution; assay type: cell-based; conditions: Enterobacter cloacae, A9659, tube dilution, Nutrient Broth, overnight incubation at 37° C.; additional data table
Source text: N-formimidoyl thienamycin was included as a comparison compound.

E. cloacae A-9656 = test: In vitro MIC, tube dilution; assay type: cell-based; conditions: Enterobacter cloacae, A9656, tube dilution, Nutrient Broth, overnight incubation at 37° C.; additional data table
S. aureus A-9537 = test: In vitro MIC, tube dilution; assay type: cell-based; conditions: Staphylococcus aureus, overnight incubation at 37° C., additional data table
[2] = Urinary recovery after intramuscular administration to mice; assay type: in vivo; conditions: mouse, urine, im, 20 mg/kg, intramuscular dose of 20 mg/kg, 0-6 hour collection, read-out: Urine Recovery
Experimental: Compounds were solubilized in 0.1 M phosphate buffer pH 7. Values are from a single test; 4 mice per compound.
as §1
***Recovery based on 0-6 hour collection

K. pneumoniae A20468 = test: In vitro MIC, tube dilution; assay type: cell-based; conditions: Klebsiella pneumoniae, A20468, tube dilution, Nutrient Broth, overnight incubation at 37° C.; additional data table
P. mirabilis A-9900 = test: In vitro MIC, tube dilution; assay type: cell-based; conditions: Proteus mirabilis, A9900, tube dilution, Nutrient Broth, overnight incubation at 37° C.; additional data table
P. aeruginosa A-9843A = test: In vitro MIC, tube dilution; assay type: cell-based; conditions: Pseudomonas aeruginosa, A9843A, Nutrient Broth, overnight incubation at 37° C., additional data table
[3] = Half-life in phosphate buffer solution; assay type: physicochemical; conditions: phosphate buffer, pH 7.4, concentration of 10^-4 M in phosphate buffer pH 7.4 at 36.8° C.; read-out: t1/2 (solution stability) (converted)
P. vulgaris A21559 = test: In vitro MIC, tube dilution; assay type: cell-based; conditions: Proteus vulgaris, A21559, tube dilution, Nutrient Broth, overnight incubation at 37° C.; additional data table

In the case of `C[C@@H](O)[C@H]1C(=O)N2C(C(=O)[O-])=C(SCC[N+]3(C)CCN(C)CC3)C[C@H]12` [Example 4, (5R,6S)3-[2-(1,4-dimethyl-1-piperazinium)-ethylthio]-6-[1-(R)-hydroxyethyl]-7-oxo-1-azabicyclo-[3.2.0]hept-2-ene-2-carboxylate], the Cmax [1] is reported as 17300 ng/mL, the AUC ([1]; read-out: Blood AUC) is reported as 7600 ng·h/mL and the half-life ([1]; read-out: Blood T1/2) is reported as 0.2 h. It also gave an MIC (E. coli A15119) of 0.13 µg/mL (≈ 0.352 µM), an MIC (S. pyogenes A-9604) of 0.004 µg/mL (≈ 0.0108 µM) and an MIC (K. pneumoniae A-9664) of 0.25 µg/mL (≈ 0.677 µM). It also gave an MIC (P. rettgeri A22424) of 1 µg/mL (≈ 2.71 µM), an MIC (P. morganii A15153) of 1 µg/mL (≈ 2.71 µM) and an MIC (E. cloacae A-9659) of 1 µg/mL (≈ 2.71 µM). The MIC (E. cloacae A-9656) was 2 µg/mL (≈ 5.41 µM), the MIC (S. aureus A-9537; A9537, 50% serum, tube dilution, read-out: MIC S. aureus-50% serum A-9537) was 0.06 µg/mL (≈ 0.162 µM) and the MIC (S. aureus A-9537; A9537, tube dilution, Nutrient Broth, read-out: MIC S. aureus A-9537) was 0.03 µg/mL (≈ 0.0812 µM). It also gave a dose excreted at 6 h [2] of 33 ± 11%, an MIC (K. pneumoniae A20468) of 0.5 µg/mL (≈ 1.35 µM) and an MIC (P. mirabilis A-9900) of 0.25 µg/mL (≈ 0.677 µM). The MIC (P. aeruginosa A-9843A) was 16 µg/mL (≈ 43.3 µM), the half-life [3] was 12.4 h and the MIC (P. vulgaris A21559) was 0.25 µg/mL (≈ 0.677 µM).
